Measurements published in patent publication US8742110B2, “Spiroxazolidinone compounds” (Merck Sharp & Dohme Corp., priority 2010, dated 2014).
Where a name gives a salt, the structure may show the parent alone.

Molecular target: SSTR5 (Homo sapiens (Human), UniProt P35346)
Experiment: SSTR5 binding assay
Conditions: CHO-K1 membranes expressing cloned human SSTR5
Protocol: The receptor-ligand binding assays of all 5 subtype of SSTRs were performed with membranes isolated from Chinese hamster ovary (CHO)-K1 cells stably expressing the cloned human somatostatin receptors in 96-well format as previous reported.
The stable cell lines for SSTR1-SSTR5 were developed by stably transfecting with DNA for all five SSTRs using Lipofectamine. […] The assay buffer consisted of 50 mM TrisHCl (pH 7.8) with 1 mM EGTA, […] MgCl2, leupeptin (10 μg/mL), pepstatin (10 μg/mL), bacitracin (200 μg/mL), and aprotinin (0.5 μg/mL). CHO-K1 cell membranes, radiolabeled somatostatin, and unlabeled test compounds were resuspended or diluted in this assay buffer. Unlabeled test compounds were examined over a range of concentrations from 0.01 nM to 10,000 nM.
Compounds exemplified were tested in the SSTR5 binding assay.

Sequence of SSTR5 (P35346 whole entry): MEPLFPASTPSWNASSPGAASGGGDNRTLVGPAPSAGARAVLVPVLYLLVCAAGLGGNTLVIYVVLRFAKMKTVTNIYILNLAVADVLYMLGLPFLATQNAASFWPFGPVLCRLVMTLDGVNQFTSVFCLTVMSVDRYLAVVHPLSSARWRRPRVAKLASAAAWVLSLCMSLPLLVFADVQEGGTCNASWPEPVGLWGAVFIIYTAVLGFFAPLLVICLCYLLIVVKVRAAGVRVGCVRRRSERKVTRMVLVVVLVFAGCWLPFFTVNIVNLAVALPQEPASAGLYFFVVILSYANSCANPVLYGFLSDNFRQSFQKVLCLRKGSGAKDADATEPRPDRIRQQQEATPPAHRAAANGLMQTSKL

Compound | IC50 [nM]
CCCn1nc(Cc2cc(F)c(F)cc2F)c(CN2CCC3(CC2)CN(c2ccc(C(=O)O)cc2)C(=O)O3)c1Cl [Example 1-46, 4-(8-{[5-Chloro-1-propyl-3-(2,4,5-trifluorobenzyl)-1H-pyrazol-4-yl]methyl}-2-oxo-1-oxa-3,8-diazaspiro[4.5]dec-3-yl)benzoic acid, TFA salt] | 40.9
O=C(O)c1ccc(N2CC3(CCN(Cc4c(Cc5cc(F)c(F)cc5F)nn(-c5ccccc5)c4Cl)CC3)OC2=O)cc1 [Example 1-47, 4-(8-{[5-Chloro-1-phenyl-3-(2,4,5-trifluorobenzyl)-1H-pyrazol-4-yl]methyl}-2-oxo-1-oxa-3,8-diazaspiro[4.5]dec-3-yl)benzoic acid, TFA salt] | 79
Cn1cc(-c2ccc(F)c(F)c2F)c(CN2CCC3(CC2)CN(c2ccc(C(=O)O)cc2)C(=O)O3)n1 [Example 2-1, 4-(8-{[1-Methyl-4-(2,3,4-trifluorophenyl)-1H-pyrazol-3-yl]methyl}-2-oxo-1-oxa-3,8-diazaspiro[4.5]dec-3-yl)benzoic acid, TFA salt] | 2950
Cn1cc(-c2cc(F)c(F)cc2F)c(CN2CCC3(CC2)CN(c2ccc(C(=O)O)cc2)C(=O)O3)n1 [Example 2-2, 4-(8-{[1-Methyl-4-(2,4,5-trifluorophenyl)-1H-pyrazol-3-yl]methyl}-2-oxo-1-oxa-3,8-diazaspiro[4.5]dec-3-yl)benzoic acid, TFA salt] | 4320
O=C(O)c1ccc(N2CC3(CCN(Cc4nn(Cc5ccc(Cl)cc5)cc4-c4ccc(F)c(F)c4F)CC3)OC2=O)cc1 [Example 2-3, 4-(8-{[1-(4-Chlorobenzyl)-4-(2,3,4-trifluorophenyl)-1H-pyrazol-3-yl]methyl}-2-oxo-1-oxa-3,8-diazaspiro[4.5]dec-3-yl)benzoic acid, TFA salt] | 89.3
O=C(O)c1ccc(N2CC3(CCN(Cc4nn(Cc5ccc(Cl)cc5)cc4-c4cc(F)c(F)cc4F)CC3)OC2=O)cc1 [Example 2-4, 4-(8-{[1-(4-Chlorobenzyl)-4-(2,4,5-trifluorophenyl)-1H-pyrazol-3-yl]methyl}-2-oxo-1-oxa-3,8-diazaspiro[4.5]dec-3-yl)benzoic acid, TFA salt] | 112
COc1c(-c2cn(C(C)C)nc2CN2CCC3(CC2)CN(c2ccc(C(=O)O)cc2)C(=O)O3)ccc(F)c1F [Example 2-5, 4-(8-{[4-(3,4-Difluoro-2-methoxyphenyl)-1-(propan-2-yl)-1H-pyrazol-3-yl]methyl}-2-oxo-1-oxa-3,8-diazaspiro[4.5]dec-3-yl)benzoic acid, TFA salt] | 191
CCCn1cc(-c2ccc(F)c(F)c2F)c(CN2CCC3(CC2)CN(c2ccc(C(=O)O)cc2)C(=O)O3)n1 [Example 2-6, 4-(2-Oxo-8-{[1-propyl-4-(2,3,4-trifluorophenyl)-1H-pyrazol-3-yl]methyl}-1-oxa-3,8-diazaspiro[4.5]dec-3-yl)benzoic acid, TFA salt] | 281
CC(C)(C)n1cc(CN2CCCC3(CC2)CN(c2ccc(C(=O)O)cc2)C(=O)O3)c(-c2ccc(F)c(F)c2F)n1 (stereo not drawn) [Example 2-11, 4-(8-{[1-tert-Butyl-3-(2,3,4-trifluorophenyl)-1H-pyrazol-4-yl]methyl}-2-oxo-1-oxa-3,8-diazaspiro[4.6]undec-3-yl)benzoic acid, TFA salt] | 207
CCOc1ccc(-c2ccc(F)c(F)c2)c(CN2CCCC3(CC2)CN(c2ccc(C(=O)O)cc2)C(=O)O3)c1 (stereo not drawn) [Example 2-13, 4-{8-[(4-Ethoxy-3′,4′-difluorobiphenyl-2-yl)methyl]-2-oxo-1-oxa-3,8-diazaspiro[4.6]undec-3-yl}benzoic acid, TFA salt] | 26.1
COc1ccc(-c2nn(C(C)(C)C)cc2CN2CCCC3(CC2)CN(c2ccc(C(=O)O)cc2)C(=O)O3)cc1 (stereo not drawn) [Example 2-14, 4-(8-{[1-tert-Butyl-3-(4-methoxyphenyl)-1H-pyrazol-4-yl]methyl}-2-oxo-1-oxa-3,8-diazaspiro[4.6]undec-3-yl)benzoic acid, TFA salt] | 26.8
COc1ccc(-c2nn(-c3ccccc3)cc2CN2CCCC3(CC2)CN(c2ccc(C(=O)O)cc2)C(=O)O3)cc1 (stereo not drawn) [Example 2-15, 4-(8-{[3-(4-Methoxyphenyl)-1-phenyl-1H-pyrazol-4-yl]methyl}-2-oxo-1-oxa-3,8-diazaspiro[4.6]undec-3-yl)benzoic acid, TFA salt] | 58.7
CC(C)(C)n1cc(CN2CCC3(C2)CN(c2ccc(C(=O)O)cc2)C(=O)O3)c(-c2ccc(F)c(F)c2F)n1 (stereo not drawn) [Example 2-17, 4-(7-{[1-tert-Butyl-3-(2,3,4-trifluorophenyl)-1H-pyrazol-4-yl]methyl}-2-oxo-1-oxa-3,7-diazaspiro[4.4]non-3-yl)benzoic acid, TFA salt] | 32.7
CCOc1cc(CN2CCC3(CC2)CN(c2ccccc2C(=O)O)C(=O)O3)cc(OCC)c1-c1ccc(F)cc1 [Example 3-3, 2-{8-[(2,6-Diethoxy-4′-fluorobiphenyl-4-yl)methyl]-2-oxo-1-oxa-3,8-diazaspiro[4.5]dec-3-yl}benzoic acid, TFA salt] | 229

The next compounds have a lower IC50 than those just listed; values first:

IC50 [nM] | Compound
23 | CC(C)n1nc(Cc2cc(F)c(F)cc2F)c(CN2CCC3(CC2)CN(c2ccc(C(=O)O)cc2)C(=O)O3)c1Cl [Example 1-45, 4-(8-{[5-Chloro-1-(propan-2-yl)-3-(2,4,5-trifluorobenzyl)-1H-pyrazol-4-yl]methyl}-2-oxo-1-oxa-3,8-diazaspiro[4.5]dec-3-yl)benzoic acid, TFA salt]
14.9 | CC(C)(C)n1cc(CN2CC3(C2)CN(c2ccc(C(=O)O)cc2)C(=O)O3)c(-c2ccc(F)c(F)c2F)n1 [Example 2-9, 4-(2-{[1-tert-Butyl-3-(2,3,4-trifluorophenyl)-1H-pyrazol-4-yl]methyl}-6-oxo-5-oxa-2,7-diazaspiro[3.4]oct-7-yl)benzoic acid, TFA salt]
14.3 | CCCCn1nc(Cc2cc(F)c(F)cc2F)c(CN2CCC3(CC2)CN(c2ccc(C(=O)O)cc2)C(=O)O3)c1Cl [Example 1-44, 4-(8-{[5-Chloro-1-butyl-3-(2,4,5-trifluorobenzyl)-1H-pyrazol-4-yl]methyl}-2-oxo-1-oxa-3,8-diazaspiro[4.5]dec-3-yl)benzoic acid, TFA salt]
10.4 | O=C(O)c1ccc(N2CC3(CCN(Cc4cn(CC(F)(F)F)nc4-c4ccc(F)c(F)c4F)CC3)OC2=O)cc1 [Example 1-41, 4-(2-Oxo-8-{[1-(2,2,2-trifluoroethyl)-3-(2,3,4-trifluorophenyl)-1H-pyrazol-4-yl]methyl}-1-oxa-3,8-diazaspiro[4.5]dec-3-yl)benzoic acid, TFA salt]
10.4 | O=C(O)c1ccc(N2CC3(CCN(Cc4cnn(C5CCCCC5)c4-c4cc(F)c(F)cc4F)CC3)OC2=O)cc1 [Example 2-8, 4-(8-{[1-Cyclohexyl-5-(2,4,5-trifluorophenyl)-1H-pyrazol-4-yl]methyl}-2-oxo-1-oxa-3,8-diazaspiro[4.5]dec-3-yl)benzoic acid, TFA salt]
8.34 | CCCCn1cc(CN2CCC3(CC2)CN(c2ccc(C(=O)O)cc2)C(=O)O3)c(Cc2cc(F)c(F)cc2F)n1 [Example 1-40, 4-(8-{[1-Butyl-3-(2,4,5-trifluorobenzyl)-1H-pyrazol-4-yl]methyl}-2-oxo-1-oxa-3,8-diazaspiro[4.5]dec-3-yl)benzoic acid, TFA salt]
5.63 | CCOc1cc(CN2CCC3(C2)CN(c2ccc(C(=O)O)cc2)C(=O)O3)cc(OCC)c1-c1ccc(F)cc1 (stereo not drawn) [Example 2-16, 4-{7-[(2,6-Diethoxy-4′-fluorobiphenyl-4-yl)methyl]-2-oxo-1-oxa-3,7-diazaspiro[4.4]non-3-yl}benzoic acid, TFA salt]
4.93 | CCOc1cc(CN2CCCC3(CC2)CN(c2ccc(C(=O)O)cc2)C(=O)O3)cc(OCC)c1-c1ccc(F)cc1 (stereo not drawn) [Example 2-12, 4-{8-[(2,6-Diethoxy-4′-fluorobiphenyl-4-yl)methyl]-2-oxo-1-oxa-3,8-diazaspiro[4.6]undec-3-yl}benzoic acid, TFA salt]
4.68 | CC(C)(C)n1cc(CN2CCC3(CC2)CN(c2ccc(C(=O)O)c(F)c2)C(=O)O3)c(-c2ccc(F)c(F)c2F)n1 [Example 1-42, 4-(8-{[1-tert-Butyl-3-(2,3,4-trifluorophenyl)-1H-pyrazol-4-yl]methyl}-2-oxo-1-oxa-3,8-diazaspiro[4.5]dec-3-yl)-2-fluorobenzoic acid, TFA salt]
2.88 | CC(C)(C)n1cc(CN2CCC3(CC2)CN(c2ccc(C(=O)O)cn2)C(=O)O3)c(-c2ccc(F)c(F)c2F)n1 [Example 1-43, 6-(8-{[1-tert-Butyl-3-(2,3,4-trifluorophenyl)-1H-pyrazol-4-yl]methyl}-2-oxo-1-oxa-3,8-diazaspiro[4.5]dec-3-yl)pyridine-3-carboxylic acid, TFA salt]
1.83 | O=C(O)c1ccc(N2CC3(CCN(Cc4cnn(-c5ccccc5)c4-c4cc(F)c(F)cc4F)CC3)OC2=O)cc1 [Example 2-7, 4-(2-Oxo-8-{[1-phenyl-5-(2,4,5-trifluorophenyl)-1H-pyrazol-4-yl]methyl}-1-oxa-3,8-diazaspiro[4.5]dec-3-yl)benzoic acid, TFA salt]
1.46 | CCOc1cc(CN2CCC3(CC2)CN(c2cncc(O)c2)C(=O)O3)cc(OCC)c1-c1ccc(F)cc1 [Example 3-2, 8-[(2,6-Diethoxy-4′-fluorobiphenyl-4-yl)methyl]-3-(5-hydroxypyridin-3-yl)-1-oxa-3,8-diazaspiro[4.5]decan-2-one, TFA salt]
1.4 | CCOc1cc(CN2CCC3(CC2)CN(c2ccc(C(=O)O)nc2)C(=O)O3)cc(OCC)c1-c1ccc(F)cc1 [Example 3-4, 5-{8-[(2,6-Diethoxy-4′-fluorobiphenyl-4-yl)methyl]-2-oxo-1-oxa-3,8-diazaspiro[4.5]dec-3-yl}pyridine-2-carboxylic acid, TFA salt]
